Source: patent publication US20050215567A1, “1-[2H-1-benzopyran-2-one-8-yl]-piperazine derivatives for the treatment of pain” (SOLVAY PHARMACEUTICALS B.V., priority 2004, published 2005)
Entries after “also recorded” stand apart in the source; their conditions may differ.

How the values were obtained:
hot plate latency = experiment: Hot plate test (acute pain model); format: in vivo, mice; conditions: for Latency of animal to remove itself from the hotplate seconds ± STDerr: 30 minutes after administration; for analgesic effect in the hot plate test (in words): i.p., morphine 7.5 mg/kg, compound 1 0.1 mg/kg, sumatriptan 10 mg/kg
Protocol: Hot plate test in mouse or rat according to Eddy and Leimbach (J. Pharmacol. Exp. Ther. 1953, 107: 385-393): Mice or rats are placed onto a hot metal plate maintained at 54° C. for mice or 52° C. for rats surrounded by a Plexiglas cylinder (Height: 13 cm; Diameter: 19 cm). The latency to the first foot-lick is measured (maximum: 30 seconds).
Compound 1 and other compounds were tested on the hotplate 30 minutes after intraperitoneal administration. A description of the method is given above.

[1] = tested on: acetic acid induced writhing; experiment: Acetic acid writhing test (acute pain model); format: in vivo, mice; conditions: Mus musculus, po
Protocol: Phenylbenzoquinone and acetic writhing tests in mice follow the methods described by Hendershot et al (J. Pharmacol. Exp. Ther. 1959, 125: 237-240): Mice are injected with phenylbenzoquinone (PBQ) (1.25 mg/kg ip.) or acetic acid (0.5% ip.). This treatment induces a recognizable writhing response in control animals. The number of writhes is counted for 10 minutes beginning 5 minutes after injection of PBQ or acetic acid.

[2] = Sedative effects after oral dosing; format: in vivo; conditions: dosages of up to 100 mg/kg p.o.

Structure (SMILES)	Latency of animal to remove itself from the hotplate seconds ± STDerr (hot plate latency; 7.5 mg/kg i.p.) [s]	analgesic effect in the hot plate test (in words) (hot plate latency)	Latency of animal to remove itself from the hotplate seconds ± STDerr (hot plate latency; 0.1 mg/kg i.p.) [s]	ED50 (hot plate latency; Mus musculus, po, read-out: ED50 hot plate test) [mg/kg]	ED50 [1] [mg/kg]	sedative effects [2]	Latency of animal to remove itself from the hotplate seconds ± STDerr (hot plate latency; 10 mg/kg i.p.) [s]	analgesic effect in the hot plate test (in words) (hot plate latency; listed as Sumatriptan)	antagonism of the analgesic effect of compound 1 in the hot plate test (hot plate latency; sumatriptan 10 mg/kg i.p. with compound 1 0.1 mg/kg i.p., P-value=0.0001, Wilcoxon test)
CN1CC[C@]23c4c5ccc(O)c4O[C@H]2[C@@H](O)C=C[C@H]3[C@H]1C5 [morphine]	7.8 ± 0.3	nearly doubles the latency							
Nc1cc2cccc(N3CCNCC3)c2oc1=O [Compound 1, 3-amino-8-(1-piperazinyl)-2H-1-benzopyran-2-one]			8.4 ± 0.5	3.2	1.82	devoid of sedative effects			
CNS(=O)(=O)Cc1ccc2[nH]cc(CCN(C)C)c2c1 [sumatriptan]		inactive					3.9 ± 0.3	completely inactive	nearly completely antagonizes; also recorded: nearly completely blocked
